Results published in the NIST ThermoML archive (doi:10.1021/acs.jced.5b00710).
± gives the expanded uncertainty stated by the source.

Experiment: an = ratio of the nth substance listed
Details: 298.15 K; 101 kPa; Liquid; Cone and plate viscometry; a1 = 1

CCCCCCCCCCCCCC[P+](CCCCCC)(CCCCCC)CCCCCC.O=S(=O)([N-]S(=O)(=O)C(F)(F)F)C(F)(F)F + NCCO
viscosity: 90 ± 2 mPa·s
